{"source": "patent US7625713B2", "about": "“Process for identifying a ligand that binds to the NEP binding site for the SMR1 pentapeptide” (Institut Pasteur, priority 2000, dated 2009)", "key": {"[1]": {"target": "T1, purified rabbit renal NEP (Oryctolagus cuniculus, UniProt P08049)", "T1 construct": "purified rabbit renal NEP; from tissue; host or cells: rabbit kidney (purified enzyme)", "T1 sequence (P08049 1-750)": "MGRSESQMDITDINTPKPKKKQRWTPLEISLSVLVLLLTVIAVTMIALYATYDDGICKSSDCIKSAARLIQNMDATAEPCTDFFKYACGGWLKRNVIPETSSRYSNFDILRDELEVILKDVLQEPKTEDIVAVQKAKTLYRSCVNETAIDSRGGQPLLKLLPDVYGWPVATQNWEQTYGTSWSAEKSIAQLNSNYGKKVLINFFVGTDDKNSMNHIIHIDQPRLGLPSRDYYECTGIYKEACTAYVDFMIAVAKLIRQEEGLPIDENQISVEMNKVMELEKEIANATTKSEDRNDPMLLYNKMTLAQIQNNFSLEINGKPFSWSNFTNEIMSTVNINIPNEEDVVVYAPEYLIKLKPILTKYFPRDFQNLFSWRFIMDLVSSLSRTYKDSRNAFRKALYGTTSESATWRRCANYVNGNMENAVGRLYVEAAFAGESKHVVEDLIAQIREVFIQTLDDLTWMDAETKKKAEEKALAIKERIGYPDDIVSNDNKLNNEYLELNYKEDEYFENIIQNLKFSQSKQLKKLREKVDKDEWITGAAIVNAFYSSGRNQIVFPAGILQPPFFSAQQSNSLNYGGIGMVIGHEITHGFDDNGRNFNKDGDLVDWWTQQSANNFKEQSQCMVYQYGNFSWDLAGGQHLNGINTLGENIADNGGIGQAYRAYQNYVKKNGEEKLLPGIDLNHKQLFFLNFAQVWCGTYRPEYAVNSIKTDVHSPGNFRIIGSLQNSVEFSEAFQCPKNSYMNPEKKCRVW", "experiment": "Substance P catabolism by purified rabbit renal NEP", "format": "biochemical", "settings": "substance P as substrate, read-out: inhibition of substance P catabolism by the soluble enzyme"}, "Chelating-FPLC analyses": {"experiment": "Chelating-FPLC analyses", "format": "physicochemical", "excerpt": "Otherwise, tissue-uptake of the sialorphin peptide involves a complex molecular species, including a cation mineral element, as the peptide was only recovered in the presence of a strong divalent metal ion chelating agent (Rougeot, C. et al. (1997), American Journal of Physiology 273, […]-20). […] The zinc ion, an essential component of the NEP catalytic site, is a common target of synthetic potent NEP inhibitors described elsewhere."}, "NEP": {"target": "T2, NEP (Rattus norvegicus, UniProt P07861)", "T2 construct": "peripheral tissue membrane preparations that are known to be enriched in NEP-peptidase; from tissue; host or cells: rat renal outer medulla/kidney, intestine mucosa, placenta, prostate, dental and bone tissues, submandibular gland (membrane preparations)", "T2 sequence (P07861 2-750)": "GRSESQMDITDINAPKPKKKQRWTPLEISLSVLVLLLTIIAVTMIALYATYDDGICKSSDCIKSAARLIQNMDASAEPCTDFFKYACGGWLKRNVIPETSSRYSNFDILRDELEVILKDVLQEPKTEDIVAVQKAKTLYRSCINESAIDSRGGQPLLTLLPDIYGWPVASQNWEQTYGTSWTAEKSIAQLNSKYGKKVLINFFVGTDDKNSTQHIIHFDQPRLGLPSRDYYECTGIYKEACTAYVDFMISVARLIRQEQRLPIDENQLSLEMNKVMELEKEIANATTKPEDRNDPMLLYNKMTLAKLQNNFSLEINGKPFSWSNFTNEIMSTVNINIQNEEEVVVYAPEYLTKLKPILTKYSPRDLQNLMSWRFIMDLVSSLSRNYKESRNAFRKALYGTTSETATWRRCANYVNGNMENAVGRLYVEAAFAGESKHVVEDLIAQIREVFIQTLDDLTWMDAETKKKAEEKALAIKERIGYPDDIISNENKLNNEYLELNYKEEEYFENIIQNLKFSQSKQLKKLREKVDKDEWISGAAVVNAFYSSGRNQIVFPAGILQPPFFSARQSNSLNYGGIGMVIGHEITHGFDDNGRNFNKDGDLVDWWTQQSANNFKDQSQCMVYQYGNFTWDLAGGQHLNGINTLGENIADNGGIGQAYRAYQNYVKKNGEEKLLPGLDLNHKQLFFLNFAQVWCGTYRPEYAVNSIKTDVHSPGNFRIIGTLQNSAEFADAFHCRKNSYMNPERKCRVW", "experiment": "Substance P endoproteolysis by rat peripheral tissue membrane preparations", "format": "biochemical", "description": "FIG. 4-A: Endopeptidase activity of the tissue membrane preparations was determined using 25 nM [3H] substanceP, in the presence of 10 μM bestatin. The enzymatic specific activity expressed in pM/min/μg membrane protein is done in the absence and in the presence of 10 μM sialorphin or NEP inhibitors (10 μM phosphoramidon or 1 μM thiorphan).\nFIG. 4-B: Concentration-dependent inhibition by sialorphin of [3H] substanceP catabolism by rat renal membrane preparations. Each point represents the percentage of […] intact [3H] substanceP recovered and calculated as percentage of velocity without inhibitor−velocity in presence of inhibitor/velocity without inhibitor, and (*) represents the mean±SD of four determinations. Sialorphin concentration is expressed in nM and plotted on a log scale in B right. The protein concentration of membrane enzyme were defined according to conditions of measurement of initial velocity.\nThe same approach was applied to peripheral tissue membrane preparations that are known to be enriched in NEP-peptidase and/or to be targets for sialorphin, in vivo, i.e., renal outer medulla, intestine mucosa, placenta, prostate, dental and bone tissues, as well as submandibular epithelium (Rougeot, C. et al, American Journal of Physiology, (1997) 273, R1309-20; Sales et al., (1991) Regulatory Peptides 33, 209-22) and reviewed by Kenny et al., (1987), Mammalian ectoenzymes 169-210. There is evidence that, almost all these tissues contain substance P released from peripheral parasympathetic and sensory nerve terminals acting near the site of release on target cells that contain the neurokinin receptors to modulate the particular tissue function (McCarson et al., (1999), Neuroscience 93, 361-70). Thus, it appeared that the neuropeptide could be regarded as a relevant biologically NEP substrate at the periphery. However, substance P is cleaved potently by NEP and ACE membrane-bound peptidases, and both enzymes are highly distributed in the renal epithelium (Skidgel et al., (1985), Progress in Clinical & Biological Research 192, 371-8).\nThe specificity of the peptidase assay was assessed by testing the inhibitory efficacy of selective peptidase inhibitors (at 1-10 μM final concentration to induce maximum inhibitory response) on the endoproteolysis of 3H substance P by the various tissue-membrane enzymes, and by analysing the selective formation of the NEP-related tritiated product of the reaction that was defined, as above using spinal tissue. In addition, under standard conditions of initial velocity measurement, bestatin (10 μM) was added in the incubation medium to prevent unselectively the membrane aminopeptidase activities."}}, "note": "Where a SMILES comes first, the peptide text is derived from it."}
{"smiles": "N=C(N)NCCC[C@H](NC(=O)[C@@H]1CCCN1C(=O)[C@H](CC(N)=O)NC(=O)[C@H](Cc1c[nH]cn1)NC(=O)[C@@H](N)CCC(N)=O)C(=O)O", "note": "[sialorphin, Gln-His-Asn-Pro-Arg] (H-QHNPR-OH; N-terminus and C-terminus assumed)", "values": [{"measurement": "inhibition at 5 µM", "setting": "[1]", "value": 46, "unit": "%"}, {"measurement": "zinc-chelating property", "setting": "Chelating-FPLC analyses", "value": "selective and strong zinc-chelating group"}, {"measurement": "inhibitory efficacy on ectopeptidase-sensitive substance P degradation", "setting": "NEP; inner bone tissues, n=4", "value": "75±10", "unit": "%"}, {"measurement": "inhibition at 10 µM", "setting": "NEP; male rat kidney membranes, 25 nM [3H] substance P, 10 μM bestatin, 10 μM sialorphin, n=9, read-out: inhibition of renal membrane substance-P-hydrolytic activity (maximum inhibitory response)", "value": "60 ± 5", "unit": "%"}, {"measurement": "protection of exogenous 3H substance P from catabolic process", "setting": "NEP; membrane fractions of the rat intestine", "value": "87±17", "unit": "%"}, {"measurement": "inhibition of substance-P-hydrolytic activity", "setting": "NEP; rat SMG (submandibular gland) membranes", "value": 79, "unit": "%"}, {"measurement": "reduction of 3H-substance P catabolic process", "setting": "NEP; rat inner dental tissue membranes, inhibitors at 1-10 μM (sialorphin 10 μM)", "value": "39±14", "unit": "%"}, {"measurement": "decrease of substance P degradation", "setting": "NEP; rat placenta and prostate tissue membranes, 10 μM", "value": "70±3", "unit": "%"}, {"measurement": "IC50", "setting": "NEP; rat renal membrane preparations, read-out: IC50 on 3H substance-P degradation by rat kidney", "value": "500 to 1000", "unit": "nM"}]}
